Experimental data taken from patent publication US5952504A, “4-amino-3-acylnaphthyridine derivatives” (Yungjin Pharmaceutical Company, Ltd., priority 1995, dated 1999).
Where two headings read alike, the source gives them in different places.

Legend:
H^+ /K^+ ATPase = target: T1, H^+ /K^+ ATPase (Oryctolagus cuniculus, UniProt P27112); assay: Inhibition of H^+ /K^+ ATPase (rabbit gastric mucosa vesicles); type: biochemical
T1 construct: from tissue; host or cells: rabbit gastric mucosa, membrane vesicles (differential and Ficoll density gradient centrifugation)
T1 sequence (P27112 2-1035 limits assumed): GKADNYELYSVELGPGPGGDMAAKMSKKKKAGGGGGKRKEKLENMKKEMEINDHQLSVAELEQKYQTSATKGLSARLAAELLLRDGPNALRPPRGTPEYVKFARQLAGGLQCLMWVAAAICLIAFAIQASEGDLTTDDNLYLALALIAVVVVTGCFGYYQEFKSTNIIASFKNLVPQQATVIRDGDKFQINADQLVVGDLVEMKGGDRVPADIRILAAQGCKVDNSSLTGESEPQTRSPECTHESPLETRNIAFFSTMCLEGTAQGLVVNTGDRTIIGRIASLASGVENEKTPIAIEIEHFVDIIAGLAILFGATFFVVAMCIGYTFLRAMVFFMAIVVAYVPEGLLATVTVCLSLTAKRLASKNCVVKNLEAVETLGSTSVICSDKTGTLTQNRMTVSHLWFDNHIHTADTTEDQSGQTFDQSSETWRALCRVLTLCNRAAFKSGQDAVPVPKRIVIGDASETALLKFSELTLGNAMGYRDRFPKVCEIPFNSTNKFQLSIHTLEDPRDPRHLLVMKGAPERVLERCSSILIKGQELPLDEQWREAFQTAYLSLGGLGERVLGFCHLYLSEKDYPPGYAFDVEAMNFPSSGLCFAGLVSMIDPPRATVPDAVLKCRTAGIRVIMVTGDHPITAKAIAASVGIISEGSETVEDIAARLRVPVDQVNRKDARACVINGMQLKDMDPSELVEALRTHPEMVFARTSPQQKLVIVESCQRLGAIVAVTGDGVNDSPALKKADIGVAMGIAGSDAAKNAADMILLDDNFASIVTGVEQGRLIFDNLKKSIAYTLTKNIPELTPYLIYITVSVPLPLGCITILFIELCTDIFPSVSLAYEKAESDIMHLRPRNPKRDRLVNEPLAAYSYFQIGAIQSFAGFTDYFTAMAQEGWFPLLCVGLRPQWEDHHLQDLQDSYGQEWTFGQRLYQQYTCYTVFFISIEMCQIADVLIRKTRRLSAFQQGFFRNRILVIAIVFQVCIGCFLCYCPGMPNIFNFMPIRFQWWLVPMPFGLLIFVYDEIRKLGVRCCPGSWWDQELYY
T1 sequence (P18597 whole entry partner): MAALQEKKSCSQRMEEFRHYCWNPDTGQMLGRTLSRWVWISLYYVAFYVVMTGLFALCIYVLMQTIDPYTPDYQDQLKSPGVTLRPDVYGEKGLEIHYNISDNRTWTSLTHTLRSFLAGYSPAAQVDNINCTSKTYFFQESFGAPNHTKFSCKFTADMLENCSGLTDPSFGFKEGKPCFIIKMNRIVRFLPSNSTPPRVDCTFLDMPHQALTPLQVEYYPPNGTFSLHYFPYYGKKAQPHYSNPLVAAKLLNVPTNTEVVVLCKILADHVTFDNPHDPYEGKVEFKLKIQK
Experimental: 1. Inhibition of H^+ /K^+ ATPase Inhibition of H^+ /K^+ ATPase, a proton carrying enzyme, was measured by following the procedure of Saccomani et al. [Biochim. Biophy. Acta., 465, 311-330 (1977)]. Thus, a homogenate of the gastric mucose membrane of rabbit was used to prepare vesicles containing H^+ /K^+ ATPase by employing differential centrifugation and discontinuous density gradient centrifugation in Ficoll. […] Omeprazole was used as a control. A solution containing 2 mM of magnesium chloride, 40 mM of imidazole buffer (pH 7.4), 10 mM of potassium chloride and […] of ATP was added to the mixture. The resulting mixture was incubated at 37° C. for 15 minutes and the reaction was terminated by adding 1 ml of ice-cold 22% solution of trichloroacetic acid. Enzyme activity was calculated by measuring the separated inorganic phosphate by following the method of Fiske and Subbarow [J. Biol. Chem., 66, 375-440 (1925)].

gastric secretion = assay: Inhibition of gastric secretion (Shay ligation); type: in vivo, male Sprague-Dawley rats; settings: 4 hours, pylorus-ligated rats; for Gastric juice Secretion Inhibition (% at 12.5 mg/kg): 12.5 mg/kg into duodenum; for ED50: Rattus norvegicus, into duodenum, read-out: Gastric juice Secretion Inhibition (ED50)
Experimental: 2. Inhibition of Gastric Secretion
Inhibition of gastric secretion was measured by following the procedure of Shay ligation (Gastroenterology, 1954, 26, 903). Thus, male Sprague-Dawleyrats weighing 180-200 g were starved for 24 hours and their pylorus were ligated. Then, the inventive compounds shown in Table 2 or omeprazole as a positive control was administered into duodenum. Four hours later, the stomach was removed, and the acidity and amount of gastric juice were measured. By comparing the measured values with the acidity and amount of the gastric juice of the stomach of the reference group to which no test compound was administered, the inhibition of gastric secretion was calculated.

ethanol-induced lesions = assay: Inhibition of ethanol-induced lesions; type: in vivo, male Sprague-Dawley rats; settings: Rattus norvegicus; oral, 30 min before absolute ethanol (5 ml/kg); read-out: Anti-ulcer activity (ED50), Ethanol
Experimental: 1) Inhibition of ethanol-induced lesions Inhibitory activity of the inventive compound on the ethanol-induced lesions was measured by using male Sprague-Dawley rats weighing 180-200 g. Thus, rats were starved for 24 hours, and the inventive compounds shown in Table 3 or omeprazole as a positive control was orally administered. Thirty minutes later, absolute ethanol (5 ml/kg) was orally administered. 1.5 hours later, the stomach was removed, and the degree of the wound of the stomach was measured.

stress-induced ulcer = assay: Inhibition of stress-induced ulcer; type: in vivo, male Sprague-Dawley rats; settings: Rattus norvegicus; oral, water immersion stress; read-out: Anti-ulcer activity (ED50), Stress
Experimental: 4) Inhibition of stress-induced ulcer Inhibitory activity of the inventive compound on the stress-induced ulcer was evaluated by using male Spraque-Dawley rats. Thus, rats were starved for 24 hours prior to carrying out the experiment. Stress is an important factor for causing gastric ulcer, and was applied to rats by immersing them in water. Then, the inventive compounds shown in Table 3 or omeprazole as a control was orally administered, and the inhibitions of ulcer by the action of the test compounds were observed.

[1] = test system: acetic acid-induced ulcer; assay: Inhibition of acetic acid-induced ulcer; type: in vivo, male Sprague-Dawley rats; settings: oral, 10 days
Experimental: 5) Inhibition of acetic acid-induced ulcer Inhibitory activity of the inventive compound on the acetic acid-induced ulcer was evaluated by using male Sprague-Dawley rats. Thus, rats were starved for 5 hours prior to carrying out the experiment. 20 Microliter of 30% acetic acid was injected into the submucosal layer of the stomach using a microsyringe to induce a circular ulcer on the stomach. […] The percentages of the healing of the ulcer were calculated by comparing them with that of reference group.

mepirizole-induced ulcer = assay: Inhibition of mepirizole-induced ulcer; type: in vivo, male Sprague-Dawley rats; settings: Rattus norvegicus; oral, 30 min before mepirizole (250 mg/kg); duodenum; read-out: Anti-ulcer activity (ED50), Mepirizole
Experimental: 2) Inhibition of mepirizole-induced ulcer Inhibitory activity of the inventive compound on the mepirizole-induced ulcer was measured by using male Spraque-Dawley rats weighing 200-230 g. Thus, rats were not starved, and the inventive compounds shown in Table 3 or omeprazole as a positive control was orally administered. Thirty minutes later, mepirizole suspended in 1% CMC (250 mg/kg) was orally administered. […], the duodena were removed. The degree of the ulcer thereof was measured.

[2] = test system: indomethacin-induced lesions; assay: Inhibition of indomethacin-induced lesions; type: in vivo, male Sprague-Dawley rats; settings: Rattus norvegicus; oral, before indomethacin 35 mg/kg s.c.; read-out: Anti-ulcer activity (ED50), Indomethacin
Experimental: 3) Inhibition of indomethacin-induced lesions Inhibitory activities of the inventive compounds on the indomethacin-induced lesions were measured by using male Sprague-Dawley rats. Thus, rats were starved for 48 hours and prohibited from being supplied with water for 2 hours, and 35 mg/kg of indomethacin (Sigma Co.) as a causative of gastric lesions was subcutaneously administered. Before indomethacin treatment, the inventive compounds shown in Table 3 or omeprazole as a positive control was orally administered, and the inhibitions of lesions by the action of the test compounds were observed.

[3] = Acute toxicity (oral, 14 days); type: in vivo; settings: mouse, in vivo, po; for mortality at 336 h: read-out: Lethality (%); for LD50 at 336 h: 14 days
Experimental: (§1) A median lethal dose (LD50) an index of acute toxicity was measured and is Table 4

ICR mice = assay: Acute toxicity (oral, 14 days); type: in vivo; settings: 6 animals
Experimental: as §1

[4] = preincubation 30 min, 37° C., pH 7.4

Q: Which IC50 (H^+ /K^+ ATPase; [4]) does the source give for `CCCC(=O)c1cnc2c(OC(C)C)nccc2c1Nc1ccccc1C` [Example 43, 3-Butyryl-8-isopropoxy-4-(2-methylphenylamino)-1,7-naphthyridine] here?
A: 18.2 µM

Q: For `CCCC(=O)c1cnc2c(OC)nccc2c1NCCCCc1ccccc1` [Example 29], which IC50 (H^+ /K^+ ATPase; [4]) is on record?
A: 26.9 µM

Q: With `CCOC(=O)c1cnc2c(N3CCOCC3)nccc2c1Nc1ccccc1OC` [Example 49] as the compound, how does the “Gastric juice Secretion Inhibition (% at 12.5 mg/kg)” value (gastric secretion) read?
A: 35.8%

Q: Which results are given for `COc1ccc2[nH]c([S+]([O-])Cc3ncc(C)c(OC)c3C)nc2c1` (stereo not drawn) [Omeprazole, reference compound]?
A: ED50 (ethanol-induced lesions): 17.5 mg/kg; IC50 (H^+ /K^+ ATPase; control): 57.5 µM; ED50 (stress-induced ulcer): 4.4 mg/kg; Acetic acid: Percentage of healing in 30 mg/kg [1]: 27.1%; ED50 (mepirizole-induced ulcer): 2.8 mg/kg; ED50 [2]: 1.2 mg/kg

Q: For `CCOC(=O)c1cnc2c(OC)nccc2c1N[C@@H](C)c1ccccc1` [Example 15], which ED50 (gastric secretion) is on record?
A: 30 mg/kg

Q: And the ED50 (ethanol-induced lesions)?
A: 12.8 mg/kg

Q: And the ED50 [2]?
A: 2.1 mg/kg

Q: With `CCOC(=O)c1cnc2c(N3CCOCC3)nccc2c1Nc1cccc(C(F)(F)F)c1` [Example 55] as the compound, how does the IC50 (H^+ /K^+ ATPase; [4]) read?
A: 16.8 µM

Q: With `CCCCc1ccc(Nc2c(C(=O)CCC)cnc3c(OCC)nccc23)cc1` [Example 35] as the compound, how does the IC50 (H^+ /K^+ ATPase; [4]) read?
A: 20.5 µM

Q: With `CCCC(=O)c1cnc2c(OCC)nccc2c1N[C@H](C)c1ccccc1` [Example 37] as the compound, how does the ED50 (gastric secretion) read?
A: 13.3 mg/kg

Q: And the IC50 (H^+ /K^+ ATPase; [4])?
A: 28 µM

Q: With `CCCC(=O)c1cnc2c(OCC)nccc2c1Nc1ccccc1SC` [Example 34] as the compound, how does the ED50 (gastric secretion) read?
A: 30 mg/kg

Q: What about the ED50 (ethanol-induced lesions) of the same compound?
A: 30.6 mg/kg

Q: What about the IC50 (H^+ /K^+ ATPase; [4]) of the same compound?
A: 23.4 µM

Q: And the ED50 [2]?
A: 4.9 mg/kg

Q: For `CCCC(=O)c1cnc2c(OC)nccc2c1N[C@H](C)c1ccccc1` [Example 21], which ED50 (gastric secretion) is on record?
A: 11.7 mg/kg

Q: And the ED50 (ethanol-induced lesions)?
A: 11.2 mg/kg

Q: And the IC50 (H^+ /K^+ ATPase; [4])?
A: 45.7 µM

Q: What about the ED50 (stress-induced ulcer) of the same compound?
A: 13 mg/kg

Q: And the “Acetic acid: Percentage of healing in 30 mg/kg” value [1]?
A: 22.0%

Q: And the ED50 (mepirizole-induced ulcer)?
A: 64.1 mg/kg

Q: And the mortality at 336 h ([3]; 40 mg/kg, female, 40 mg/kg oral)?
A: 0%

Q: And the mortality at 336 h ([3]; 40 mg/kg, male, 40 mg/kg oral)?
A: 0%

Q: What about the mortality at 336 h ([3]; 200 mg/kg, female, 200 mg/kg oral) of the same compound?
A: 0%

Q: And the mortality at 336 h ([3]; 200 mg/kg, male, 200 mg/kg oral)?
A: 0%

Q: And the mortality at 336 h ([3]; 1000 mg/kg, female, 1000 mg/kg oral)?
A: 17%

Q: And the mortality at 336 h ([3]; 1000 mg/kg, male, 1000 mg/kg oral)?
A: 0%

Q: What about the mortality at 336 h ([3]; 5000 mg/kg, female, 5000 mg/kg oral) of the same compound?
A: 100%

Q: And the mortality at 336 h ([3]; 5000 mg/kg, male, 5000 mg/kg oral)?
A: 100%

Q: And the LD50 at 336 h ([3]; female)?
A: 1130 mg/kg

Q: And the LD50 at 336 h ([3]; male)?
A: 2340 mg/kg

Q: And the “No. of Death” value (ICR mice; female, 40 mg/kg oral)?
A: 0

Q: What about the “No. of Death” value (ICR mice; female, 200 mg/kg oral) of the same compound?
A: 0

Q: And the “No. of Death” value (ICR mice; female, 1000 mg/kg oral)?
A: 1

Q: What about the “No. of Death” value (ICR mice; female, 5000 mg/kg oral) of the same compound?
A: 6

Q: And the “No. of Death” value (ICR mice; male, 40 mg/kg oral)?
A: 0

Q: And the “No. of Death” value (ICR mice; male, 200 mg/kg oral)?
A: 0

Q: What about the “No. of Death” value (ICR mice; male, 1000 mg/kg oral) of the same compound?
A: 0

Q: And the “No. of Death” value (ICR mice; male, 5000 mg/kg oral)?
A: 6

Q: And the ED50 [2]?
A: 2.1 mg/kg

Q: Which IC50 (H^+ /K^+ ATPase; [4]) does the source give for `CCCC(=O)c1cnc2c(OC(C)C)nccc2c1Nc1ccccc1SC` [Example 44] here?
A: 11.4 µM

Q: Which IC50 (H^+ /K^+ ATPase; [4]) does the source give for `CCCC(=O)c1cnc2c(OCC)nccc2c1NCCCCc1ccccc1` [Example 41] here?
A: 12.6 µM

Q: Which IC50 (H^+ /K^+ ATPase; [4]) does the source give for `CCOC(=O)c1cnc2c(OC)nccc2c1Nc1ccc(F)cc1` [Example 11] here?
A: 31.6 µM

Q: With `CCCC(=O)c1cnc2c(OC)nccc2c1NC1CCCc2ccccc21` (stereo not drawn) [Example 32] as the compound, how does the IC50 (H^+ /K^+ ATPase; [4]) read?
A: 75 µM

Q: For `CCCC(=O)c1cnc2c(OC(C)C)nccc2c1Nc1ccccc1C(F)(F)F` [Example 45], which IC50 (H^+ /K^+ ATPase; [4]) is on record?
A: 39.3 µM

Q: For `CCCC(=O)c1cnc2c(OCC)nccc2c1NC1CCCc2ccccc21` (stereo not drawn) [Example 42], which IC50 (H^+ /K^+ ATPase; [4]) is on record?
A: 14.7 µM

Q: Which “Gastric juice Secretion Inhibition (% at 12.5 mg/kg)” value (gastric secretion) does the source give for `CCCCc1ccc(Nc2c(C(=O)OCC)cnc3c(OC)nccc23)cc1` [Example 13] here?
A: 42.1%

Q: And the IC50 (H^+ /K^+ ATPase; [4])?
A: 25.1 µM

Q: With `CCCC(=O)c1cnc2c(OC)nccc2c1Nc1ccc2c(c1)CCC2` [Example 31] as the compound, how does the IC50 (H^+ /K^+ ATPase; [4]) read?
A: 14.9 µM
